Measured values taken from PubChem BioAssay AID330 (DTP/NCI, 2004).
Several values for one entry are separate records, joined by “and”; a condition that tells them apart may be missing. Identical values can stand only once. Toxic doses and inconclusive results are not listed.

Test system: P388 leukemia ip, CD2F1 mice, survival T/C
Experiment: NCI In Vivo Anticancer Drug Screen. Data for tumor model P388 Leukemia (intraperitoneal) in CD2F1 (CDF1) mice
Conditions: endpoint: median survival time, higher = longer survival
Procedure, shortened: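 Mice carrying the transplanted tumor received test compound or vehicle. Survival was recorded in each group, and the value is the treated-group measurement divided by that of the vehicle-treated control group.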

[1] = dose: 6.25 mg/kg/injection, schedule: Q01DX009 (ip), vehicle: Klucel (hydroxypropylcellulose) (HPC)
[2] = dose: 12.5 mg/kg/injection, schedule: Q01DX009 (ip), vehicle: Klucel (hydroxypropylcellulose) (HPC)
[3] = dose: 60.0 mg/kg/injection, schedule: Q01DX005 (ip), vehicle: saline with Tween-80
[4] = dose: 120.0 mg/kg/injection, schedule: Q01DX005 (ip), vehicle: saline with Tween-80
[5] = dose: 240.0 mg/kg/injection, schedule: Q01DX005 (ip), vehicle: saline with Tween-80
[6] = dose: 50.0 mg/kg/injection, schedule: Q01DX009 (ip), vehicle: saline with Tween-80
[7] = dose: 100.0 mg/kg/injection, schedule: Q01DX009 (ip), vehicle: saline with Tween-80
[8] = dose: 25.0 mg/kg/injection, schedule: Q01DX009 (ip), vehicle: saline
[9] = dose: 50.0 mg/kg/injection, schedule: Q01DX009 (ip), vehicle: saline
[10] = dose: 100.0 mg/kg/injection, schedule: Q01DX009 (ip), vehicle: saline
[11] = dose: 200.0 mg/kg/injection, schedule: Q01DX009 (ip), vehicle: saline
[12] = dose: 6.25 mg/kg/injection, schedule: Q01DX009 (ip), vehicle: saline
[13] = dose: 12.5 mg/kg/injection, schedule: Q01DX009 (ip), vehicle: saline
[14] = dose: 50.0 mg/kg/injection, schedule: Q01DX005 (ip), vehicle: Klucel (hydroxypropylcellulose) (HPC)
[15] = dose: 100.0 mg/kg/injection, schedule: Q01DX005 (ip), vehicle: Klucel (hydroxypropylcellulose) (HPC)
[16] = dose: 200.0 mg/kg/injection, schedule: Q01DX005 (ip), vehicle: Klucel (hydroxypropylcellulose) (HPC)
[17] = dose: 100.0 mg/kg/injection, schedule: Q04DX003 (ip), vehicle: saline
[18] = dose: 200.0 mg/kg/injection, schedule: Q04DX003 (ip), vehicle: saline
[19] = dose: 400.0 mg/kg/injection, schedule: Q04DX003 (ip), vehicle: saline

c1ccc([P+](COC[P+](c2ccccc2)(c2ccccc2)c2ccccc2)(c2ccccc2)c2ccccc2)cc1
T/C [1]: 92 % of control | T/C [2]: 94 % of control

Cc1cc2c(cc1C)C(=O)CCC(=O)N2
T/C [3]: 102 % of control | T/C [4]: 97 % of control | T/C [5]: 96 % of control

COc1cc(C(=O)n2ncc(C(C)=O)c2C)cc(OC)c1OC
T/C [6]: 103 % of control | T/C [7]: 106 % of control | T/C (dose: 200.0 mg/kg/injection, schedule: Q01DX009 (ip), vehicle: saline with Tween-80): 116 % of control

O=C(O)CCc1cccc(O)c1
T/C [8]: 110 % of control | T/C [9]: 101 % of control | T/C [10]: 103 % of control | T/C [11]: 95 % of control

COC1=C(OC)C(=O)C(SCCCCCCC2CCCCC2)=C(Cl)C1=O
T/C (dose: 0.2 mg/kg/injection, schedule: Q01DX009 (ip), vehicle: saline): 95 % of control | T/C (dose: 0.4 mg/kg/injection, schedule: Q01DX009 (ip), vehicle: saline): 101 % of control | T/C (dose: 0.8 mg/kg/injection, schedule: Q01DX009 (ip), vehicle: saline): 101 % of control | T/C (dose: 1.6 mg/kg/injection, schedule: Q01DX009 (ip), vehicle: saline): 102 % of control | T/C (dose: 3.13 mg/kg/injection, schedule: Q01DX009 (ip), vehicle: saline): 105 % of control | T/C [12]: 106 % of control

Nc1ccn(COC(COCc2ccccc2)COCc2ccccc2)c(=O)n1
T/C [3]: 105 % of control | T/C [4]: 96 % of control | T/C [5]: 110 % of control

O=C(O)/C(=C/c1cccs1)c1ccc(F)cc1
T/C [3]: 110 % of control | T/C [4]: 102 % of control | T/C [5]: 104 % of control

CC(C)c1ccccc1Oc1ccccc1N=C1CCN(C)C1
T/C [13]: 100 % of control | T/C [8]: 107 % of control | T/C [9]: 100 % of control and 95 % of control

O=C(CCc1cc2[nH]c1c(-c1ccccc1)c1nc(c(-c3ccccc3)c3ccc([nH]3)c(-c3ccccc3)c3nc(c2-c2ccccc2)C=C3)C=C1)OCCCc1cccnc1
T/C (dose: 50.0 mg/kg/injection, schedule: Q01DX001 (ip), vehicle: Klucel (hydroxypropylcellulose) (HPC)): 100 % of control | T/C (dose: 100.0 mg/kg/injection, schedule: Q01DX001 (ip), vehicle: Klucel (hydroxypropylcellulose) (HPC)): 105 % of control | T/C (dose: 200.0 mg/kg/injection, schedule: Q01DX001 (ip), vehicle: Klucel (hydroxypropylcellulose) (HPC)): 100 % of control | T/C (dose: 400.0 mg/kg/injection, schedule: Q01DX001 (ip), vehicle: Klucel (hydroxypropylcellulose) (HPC)): 91 % of control

O=C1C=CC(=O)N1C(=O)NC(NC(=O)N1C(=O)C=CC1=O)c1cccc2ccccc12
T/C (dose: 50.0 mg/kg/injection, schedule: Q01DX005 (ip), vehicle: saline with Tween-80): 100 % of control | T/C (dose: 100.0 mg/kg/injection, schedule: Q01DX005 (ip), vehicle: saline with Tween-80): 99 % of control | T/C (dose: 200.0 mg/kg/injection, schedule: Q01DX005 (ip), vehicle: saline with Tween-80): 90 % of control

COc1ccccc1P(=O)(CCP(=O)(c1ccccc1)c1ccccc1OC)c1ccccc1 (stereo unspecified)
T/C [14]: 103 % of control | T/C [15]: 97 % of control | T/C [16]: 91 % of control

N#CC(C#N)=C1Sc2nc3ccc([N+](=O)[O-])cc3nc2S1
T/C [9]: 109 % of control | T/C [10]: 90 % of control | T/C [11]: 118 % of control

CCC[As](CCC)SC1CCC2(C)C(=CCC3C4CCC(=O)C4(C)CCC32)C1 (stereo unspecified)
T/C (dose: 12.5 mg/kg/injection, schedule: Q01DX009 (ip), vehicle: distilled water + Tween-80): 98 % of control | T/C (dose: 25.0 mg/kg/injection, schedule: Q01DX009 (ip), vehicle: distilled water + Tween-80): 98 % of control | T/C (dose: 50.0 mg/kg/injection, schedule: Q01DX009 (ip), vehicle: distilled water + Tween-80): 95 % of control | T/C (dose: 100.0 mg/kg/injection, schedule: Q01DX009 (ip), vehicle: distilled water + Tween-80): 92 % of control | T/C (dose: 200.0 mg/kg/injection, schedule: Q01DX009 (ip), vehicle: distilled water + Tween-80): 98 % of control

c1cc2c3c(cccc3c1)NC(c1ccc3c(c1)OCO3)N2
T/C [14]: 100 % of control | T/C [15]: 100 % of control | T/C [16]: 95 % of control

COc1cc(C2C(C(C)=O)=C(C)Oc3cc4c(cc32)OCO4)cc(OC)c1O (stereo unspecified)
T/C (dose: 15.0 mg/kg/injection, schedule: Q01DX005 (ip), vehicle: saline with Tween-80): 91 % of control | T/C (dose: 30.0 mg/kg/injection, schedule: Q01DX005 (ip), vehicle: saline with Tween-80): 91 % of control | T/C [3]: 86 % of control and 90 % of control

CC1CN2C(=O)C1(c1ccccc1)C(=O)NC2=S (stereo unspecified)
T/C (dose: 50.0 mg/kg/injection, schedule: Q01DX009 (ip), vehicle: Klucel (hydroxypropylcellulose) (HPC)): 98 % of control | T/C (dose: 100.0 mg/kg/injection, schedule: Q01DX009 (ip), vehicle: Klucel (hydroxypropylcellulose) (HPC)): 107 % of control | T/C (dose: 200.0 mg/kg/injection, schedule: Q01DX009 (ip), vehicle: Klucel (hydroxypropylcellulose) (HPC)): 100 % of control

Nc1[nH]c(=S)[nH]c(=O)c1NS(=O)(=O)c1ccc([N+](=O)[O-])cc1
T/C (dose: 30.0 mg/kg/injection, schedule: Q01DX005 (ip), vehicle: Klucel (hydroxypropylcellulose) (HPC)): 101 % of control and 108 % of control | T/C (dose: 60.0 mg/kg/injection, schedule: Q01DX005 (ip), vehicle: Klucel (hydroxypropylcellulose) (HPC)): 98 % of control and 94 % of control | T/C (dose: 120.0 mg/kg/injection, schedule: Q01DX005 (ip), vehicle: Klucel (hydroxypropylcellulose) (HPC)): 101 % of control and 92 % of control | T/C (dose: 240.0 mg/kg/injection, schedule: Q01DX005 (ip), vehicle: Klucel (hydroxypropylcellulose) (HPC)): 90 % of control

N=[N+]=CC(=O)CC(N)C(=O)O (stereo unspecified)
T/C [10]: 117 % of control | T/C [17]: 92 % of control | T/C [18]: 100 % of control | T/C [19]: 100 % of control

O=[N+]([O-])c1ccc([S][Pb]([c]2ccccc2)([c]2ccccc2)[c]2ccccc2)cc1
T/C [1]: 100 % of control | T/C [2]: 102 % of control | T/C (dose: 25.0 mg/kg/injection, schedule: Q01DX009 (ip), vehicle: Klucel (hydroxypropylcellulose) (HPC)): 89 % of control

COCC(O)C(NC(=O)CCl)C(=O)O (stereo unspecified)
T/C [9]: 110 % of control and 97 % of control | T/C [10]: 90 % of control and 98 % of control | T/C [11]: 95 % of control

NC(=O)NC1OC(CO)C(O)C(O)C1O (stereo unspecified)
T/C [17]: 95 % of control | T/C [18]: 95 % of control | T/C [19]: 100 % of control

O=C(Cc1nc2ccccc2[nH]1)N/N=C1\SCC(=O)N1c1ccc(Cl)cc1
T/C [14]: 103 % of control | T/C [15]: 108 % of control | T/C [16]: 104 % of control

CC(C)n1cnc2c(Cl)ncnc21
T/C (dose: 25.0 mg/kg/injection, schedule: Q01DX009 (ip), vehicle: saline with Tween-80): 100 % of control | T/C [6]: 104 % of control | T/C [7]: 95 % of control

COc1cccc2c1C(=O)c1c(O)c3c(c(O)c1C2=O)CC(O)(/C(C)=N/NC(=O)CC(=O)N/N=C(\C)C1(O)Cc2c(O)c4c(c(O)c2C(OC2CC(N)C(O)C(C)O2)C1)C(=O)c1c(OC)cccc1C4=O)CC3OC1CC(N)C(O)C(C)O1 (stereo unspecified)
T/C (dose: 3.13 mg/kg/injection, schedule: Q01DX009 (ip), vehicle: water): 153 % of control | T/C (dose: 3.13 mg/kg/injection, schedule: Q04DX003 (ip), vehicle: water): 101 % of control | T/C (dose: 6.25 mg/kg/injection, schedule: Q01DX009 (ip), vehicle: water): 169 % of control | T/C (dose: 6.25 mg/kg/injection, schedule: Q04DX003 (ip), vehicle: water): 110 % of control | T/C (dose: 12.5 mg/kg/injection, schedule: Q04DX003 (ip), vehicle: water): 112 % of control

CCCCCCC1(/C=C/c2ccc(Cl)c(Cl)c2)OCCCO1
T/C (dose: 50.0 mg/kg/injection, schedule: Q01DX009 (ip), vehicle: saline + alcohol): 98 % of control | T/C (dose: 100.0 mg/kg/injection, schedule: Q01DX009 (ip), vehicle: saline + alcohol): 93 % of control | T/C (dose: 200.0 mg/kg/injection, schedule: Q01DX009 (ip), vehicle: saline + alcohol): 98 % of control

CN(C)Cc1cccc(CN(C)C)[c]1[Sn]([Br])([c]1ccccc1)[c]1ccccc1
T/C (dose: 1.56 mg/kg/injection, schedule: Q01DX009 (ip), vehicle: saline): 104 % of control | T/C (dose: 3.12 mg/kg/injection, schedule: Q01DX009 (ip), vehicle: saline): 106 % of control | T/C [13]: 120 % of control

CCn1c2ccc(C(=O)CCCN3CCCCC3)cc2c2cc(C(=O)CCCN3CCCCC3)ccc21
T/C [12]: 100 % of control | T/C [13]: 103 % of control and 113 % of control and 97 % of control | T/C [8]: 102 % of control and 121 % of control and 122 % of control
